Activity calls are given as the source filed them. No cut-off for these calls is given here.
Legend:
[1] = test system: Rattus norvegicus; experiment: Antidiabetic activity in Zucker rat sub-chronic fa/fa prediabetic model assessed as serum adiponectin level at 1 mg/kg, po qd for 4 days by ELISA (reference value: 9.1%); type: functional
[2] = test system: Rattus norvegicus; experiment: Effect on ACSS1 gene expression in epididymal white adipose tissue of Zucker rat sub-chronic fa/fa prediabetic model at 10 mg/kg, po qd for 15 days by microarray analysis relative to control; type: functional
[3] = test system: Rattus norvegicus; experiment: Toxicity in Zucker rat sub-chronic fa/fa prediabetic model assessed as serum cholesterol level at 3 mg/kg, po qd for 31 days measured on day 32 (reference value: 295 +/- 91 mg/dl); type: organism-based; settings: in vivo, 744 h
[4] = test system: Rattus norvegicus; experiment: Effect on ME1 gene expression in epididymal white adipose tissue of Zucker rat sub-chronic fa/fa prediabetic model at 10 mg/kg, po qd for 15 days by microarray analysis relative to control; type: functional
[5] = test system: Rattus norvegicus; experiment: Toxicity in Zucker rat sub-chronic fa/fa prediabetic model assessed as insulin level per gram pancreas at 1 mg/kg, po qd for 31 days measured on day 32 (reference value: 55.2 +/- 5.5 ug); type: organism-based; settings: in vivo, 744 h
[6] = test system: Rattus norvegicus; type: functional, Zucker
[7] = target: Estrogen receptor beta (Homo sapiens, UniProt Q92731); experiment: Inhibition of fluormone ES2 binding to recombinant full length human ERbeta expressed in insect cells by fluorescence polarization assay
[8] = test system: Rattus norvegicus; experiment: Effect on IKBKB gene expression in epididymal white adipose tissue of Zucker rat sub-chronic fa/fa prediabetic model at 10 mg/kg, po qd for 15 days by microarray analysis relative to control; type: functional
[9] = test system: Rattus norvegicus; experiment: Effect on TXNRD2 gene expression in epididymal white adipose tissue of Zucker rat sub-chronic fa/fa prediabetic model at 10 mg/kg, po qd for 15 days by microarray analysis relative to control; type: functional
[10] = test system: Rattus norvegicus; experiment: Effect on TNF gene expression in epididymal white adipose tissue of Zucker rat sub-chronic fa/fa prediabetic model at 10 mg/kg, po qd for 15 days by microarray analysis relative to control; type: functional
[11] = test system: Rattus norvegicus; experiment: Effect on ALDH3B1 gene expression in epididymal white adipose tissue of Zucker rat sub-chronic fa/fa prediabetic model at 10 mg/kg, po qd for 15 days by microarray analysis relative to control; type: functional
[12] = test system: Rattus norvegicus; experiment: Effect on ATP5F1 gene expression in epididymal white adipose tissue of Zucker rat sub-chronic fa/fa prediabetic model at 10 mg/kg, po qd for 15 days by microarray analysis relative to control; type: functional
[13] = test system: Rattus norvegicus; experiment: Toxicity in Zucker rat sub-chronic fa/fa prediabetic model assessed as serum ALT level at 10 mg/kg, po qd for 31 days measured on day 32 (reference value: 151 +/- 23 U/L); type: organism-based; settings: in vivo, 744 h
[14] = test system: Rattus norvegicus; experiment: Toxicity in Zucker rat sub-chronic fa/fa prediabetic model assessed as brown adipose tissue weight at 1 mg/kg, po qd for 31 days measured on day 32 (reference value: 2.1 +/- 0.3 g); type: organism-based; settings: in vivo, 744 h
[15] = test system: Rattus norvegicus; experiment: Toxicity in Zucker rat sub-chronic fa/fa prediabetic model assessed as brown adipose tissue weight at 50 mg/kg, po qd for 31 days measured on day 32 (reference value: 2.1 +/- 0.3 g); type: organism-based; settings: in vivo, 744 h
[16] = test system: Rattus norvegicus; experiment: Increase in ERRalpha mRNA expression in epididymal white adipose tissue of Zucker rat sub-chronic fa/fa prediabetic model at 10 mg/kg, po qd for 15 days by RT-PCR method; type: functional, organism-based
[17] = test system: Rattus norvegicus; experiment: Effect on ABCG1 gene expression in epididymal white adipose tissue of Zucker rat sub-chronic fa/fa prediabetic model at 10 mg/kg, po qd for 15 days by microarray analysis relative to control; type: functional
[18] = test system: Rattus norvegicus; experiment: Toxicity in Zucker rat sub-chronic fa/fa prediabetic model assessed as serum BUN level at 10 mg/kg, po qd for 31 days measured on day 32 (reference value: 28.3 +/- […]); type: organism-based; settings: in vivo, 744 h
[19] = AUC (0 to 24 hrs) in ob/ob mouse at 18 mg/kg administered via oral gavage by LC-MS analysis; type: ADME, organism-based; set-up: dose 18 mg/kg, time < 24 hr, route oral; settings: in vivo
[20] = test system: Rattus norvegicus; experiment: Toxicity in Zucker rat sub-chronic fa/fa prediabetic model assessed as heart weight at 50 mg/kg, po qd for 31 days measured on day 32 (reference value: 1.19 +/- 0.04 g); type: organism-based; settings: in vivo, 744 h
[21] = test system: Rattus norvegicus; experiment: Effect on HLA-DRA gene expression in epididymal white adipose tissue of Zucker rat sub-chronic fa/fa prediabetic model at 10 mg/kg, po qd for 15 days by microarray analysis relative to control; type: functional
[22] = test system: Rattus norvegicus; experiment: Effect on GNPAT gene expression in epididymal white adipose tissue of Zucker rat sub-chronic fa/fa prediabetic model at 10 mg/kg, po qd for 15 days by microarray analysis relative to control; type: functional
[23] = test system: Rattus norvegicus; experiment: Antidiabetic activity in Zucker rat sub-chronic fa/fa prediabetic model assessed as blood insulin AUC (0 to 120 min) at 1 mg/kg, po qd for 31 days measured on day 29 post dose (reference value: 1503 +/- 160 ug.min/L); type: functional, organism-based; set-up: time < 2 hr, dose 1 mg/kg
[24] = test system: Rattus norvegicus; experiment: Toxicity in […] model assessed as serum AST level at 10 mg/kg, po qd for 31 days measured on day 32 (reference value: 180 +/- 26 U/L); type: organism-based; settings: in vivo, 744 h
[25] = test system: Rattus norvegicus; experiment: Increase in PCK1 mRNA expression in epididymal white adipose tissue of Zucker rat sub-chronic fa/fa prediabetic model at 10 mg/kg, po qd for 15 days by RT-PCR method; type: functional, organism-based
[26] = Cmax in Zucker rat sub-chronic fa/fa prediabetic model at 3 mg/kg, po qd measured on day 1 post dose; type: ADME, organism-based; set-up: dose 3 mg/kg, route oral; settings: in vivo
[27] = test system: Rattus norvegicus; experiment: Toxicity in Zucker rat sub-chronic fa/fa prediabetic model assessed as insulin level per gram pancreas at 10 mg/kg, po qd for 31 days measured on day 32 (reference value: 55.2 +/- 5.5 ug); type: organism-based; settings: in vivo, 744 h
[28] = test system: Rattus norvegicus; experiment: Decrease in fed plasma glucose level in Zucker rat sub-chronic fa/fa prediabetic model at 10 mg/kg, po qd for 4 days measured on day 5 relative to control; type: functional; set-up: scale not given: the % may be the effect or the level left
[29] = AUC (0 to 24 hrs) in Zucker rat sub-chronic fa/fa prediabetic model at 3 mg/kg, po qd for 26 days measured on day 26 post last dose; type: ADME, organism-based; set-up: time < 24 hr, dose 3 mg/kg, route oral; settings: in vivo
[30] = test system: Rattus norvegicus; experiment: Toxicity in Zucker rat sub-chronic fa/fa prediabetic model assessed as epididymal white adipose tissue weight at 3 mg/kg, po qd for 31 days measured on day 32 (reference value: 13.9 +/- 0.6 g); type: organism-based; settings: in vivo, 744 h
[31] = AUC (0 to 24 hrs) in […] model at 10 mg/kg, po qd for 28 days measured on day 28 post last dose; type: ADME, organism-based; set-up: time < 24 hr, dose 10 mg/kg, route oral; settings: in vivo
[32] = test system: Rattus norvegicus; experiment: Toxicity in […] chronic ob/ob model assessed as food intake at 3 mg/kg, po qd for 28 days measured on day 1 to 28 during compound dosing (reference value: 170.6 +/- 3 g); type: organism-based; settings: in vivo, 672 h
[33] = test system: Rattus norvegicus; experiment: Effect on THEM4 gene expression in epididymal white adipose tissue of Zucker rat sub-chronic fa/fa prediabetic model at 10 mg/kg, po qd for 15 days by microarray analysis relative to control; type: functional
[34] = AUC (0 to 24 hrs) in Zucker rat sub-chronic fa/fa prediabetic model at 10 mg/kg, po qd measured on day 1 post dose; type: ADME, organism-based; set-up: time < 24 hr, dose 10 mg/kg, route oral; settings: in vivo

Sequence of Estrogen receptor beta (Q92731 whole entry): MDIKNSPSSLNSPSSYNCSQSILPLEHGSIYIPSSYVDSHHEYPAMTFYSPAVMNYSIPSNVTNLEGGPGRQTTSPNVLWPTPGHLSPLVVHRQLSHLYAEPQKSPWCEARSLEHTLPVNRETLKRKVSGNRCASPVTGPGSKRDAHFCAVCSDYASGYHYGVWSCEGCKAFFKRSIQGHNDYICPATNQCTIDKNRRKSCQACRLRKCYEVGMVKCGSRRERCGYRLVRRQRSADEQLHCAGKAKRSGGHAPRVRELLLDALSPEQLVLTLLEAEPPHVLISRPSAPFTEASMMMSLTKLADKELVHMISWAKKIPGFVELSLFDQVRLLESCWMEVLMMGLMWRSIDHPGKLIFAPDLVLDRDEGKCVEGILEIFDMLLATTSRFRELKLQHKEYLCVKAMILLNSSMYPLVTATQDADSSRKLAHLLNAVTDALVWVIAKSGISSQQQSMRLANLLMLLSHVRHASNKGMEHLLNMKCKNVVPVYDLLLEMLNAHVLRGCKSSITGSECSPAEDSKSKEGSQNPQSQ

With CN1CC[C@@H](N2C(=O)S/C(=C\c3ccc4c(cnn4Cc4ccc(Cl)cc4C(F)(F)F)c3)C2=O)[C@H](F)C1 the Activity [1] was 8.6%, the “fold change (FC)” value [2] was -1.893 and the Activity [3] was 179 mg/dL. For the same molecule, the “fold change (FC)” value [4] was 2.409, the Activity [5] was 72.7 µg and the Activity [6] was 134 mg/dL. For the same molecule, the IC50 [7] was > 10 µM, the “fold change (FC)” value [8] was -1.241 and the “fold change (FC)” value [9] was 1.311. The “fold change (FC)” value [10] was -1.24, the “fold change (FC)” value [11] was -1.554 and the “fold change (FC)” value [12] was 1.257. For the same molecule, the Activity [13] was 122 U/L, the Activity [14] was 3.7 g and the Activity [15] was 10.3 g. For the same molecule, the Activity [16] was “Active”, the “fold change (FC)” value [17] was 1.488 and the Activity [18] was 26.9 mg/dL. The AUC(0-t) at 24 h [19] was 6230 ng·h/mL, the Activity [20] was 1.19 g and the “fold change (FC)” value [21] was -1.201. For the same molecule, the “fold change (FC)” value [22] was 1.212, the AUC [23] was 16.6 ng·h/mL and the Activity [24] was 171 U/L. For the same molecule, the Activity [25] was “Active”, the Cmax [26] was 725 ng/mL and the Activity [27] was 80.1 µg. The Activity [28] was -32%, the AUC at 24 h [29] was 10800 ng·h/mL and the Activity [30] was 17.8 g. The AUC at 24 h [31] was 5910 ng·h/mL, the Activity [32] was 159.1 g and the “fold change (FC)” value [33] was 1.465. It also gave an AUC(0-t) at 24 h [34] of 18100 ng·h/mL.

From ChEMBL document CHEMBL4130359, “Indazole-based ligands for estrogen-related receptor α as potential anti-diabetic agents” (Eur J Med Chem, 2017)
